According to paper PMC6002460, “Pharmacological evaluation of new constituents of “Spice”: synthetic cannabinoids based on indole, indazole, benzimidazole and carbazole scaffolds” (Forensic Toxicology, 2018):
Where two headings read alike, the source gives them in different places.

Tests used:
[1] = biological target: T1, human CB1 receptor (Homo sapiens, UniProt P21554); test: biochemical; format: binding; conditions: [3H]CP55,940 0.1 nM, CHO cell membranes; read-out: Ki ± SEM Human CB1
T1 construct: expressed in transfected cells; host or cells: CHO cells (membrane preparations)

[2] = biological target: CB1 receptor; conditions: cited from earlier work
[3] = biological target: T2, human CB2 receptor (Homo sapiens, UniProt P34972); test: biochemical; format: binding; conditions: [3H]CP55,940 0.1 nM, CHO cell membranes; read-out: Ki ± SEM Human CB2
T2 construct: expressed in transfected cells; host or cells: CHO cells (membrane preparations)

[4] = biological target: CB2 receptor; conditions: cited from earlier work
[5] = biological target: T3, human GPR55 (Homo sapiens, UniProt Q9Y2T6); test: β-Arrestin PathHunter assay, recombinant CHO cells expressing GPR55; format: cell-based; conditions: for Human GPR55 % activation: agonist mode, value in parentheses
T3 construct: host or cells: CHO cells
Method: (§1) β-Arrestin assays were performed in recombinant CHO cells expressing either the human GPR18 or the human GPR55 as described before using the β-galactosidase enzyme fragment complementation technology (β-arrestin PathHunter™ assay; DiscoverX, Fremont, CA, USA).
(§2) The orphan receptors GPR18 and GPR55 can interact with certain natural and synthetic cannabinoids. […] Therefore, we investigated the new series of indole, indazole, benzimidazole and carbazole-derived structures in β-arrestin assays at GPR18 and GPR55 (Table 2). […] For the lipophilic substitutions, the following rank order of potency was observed: ethyl > methyl > chloro > fluoro. Therefore, it can be concluded that a lipophilic substitution in position 4 of the naphthyl residue was a requirement for GPR55 inhibition.

[6] = biological target: CB1 receptor; parameters: method as in Buchler et al. [37]; conditions: versus 0.5 nM [3H]CP55,940; ref Buchler et al. [37]; cited from earlier work
[7] = biological target: T4, human GPR18 (Homo sapiens, UniProt Q14330); test: β-Arrestin PathHunter assay, recombinant CHO cells expressing GPR18; format: cell-based; conditions: for Human GPR18 % activation: agonist mode; for Human GPR18 % activation / Human GPR18 % inhibition: value in parentheses; for Human GPR18 % inhibition: antagonist mode
T4 construct: host or cells: CHO cells
T4 sequence (Q14330 1-331): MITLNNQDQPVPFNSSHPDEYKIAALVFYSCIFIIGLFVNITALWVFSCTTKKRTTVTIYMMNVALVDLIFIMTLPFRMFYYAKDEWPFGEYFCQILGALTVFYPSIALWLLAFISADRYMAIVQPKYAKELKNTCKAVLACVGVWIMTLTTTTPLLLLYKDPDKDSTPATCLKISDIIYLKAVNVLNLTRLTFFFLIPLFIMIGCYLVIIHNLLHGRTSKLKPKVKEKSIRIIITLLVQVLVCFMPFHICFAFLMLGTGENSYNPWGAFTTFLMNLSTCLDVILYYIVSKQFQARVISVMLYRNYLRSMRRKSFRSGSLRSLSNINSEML
Method: as §1, §2

[8] = biological target: CB1 receptor; parameters: method as in Wiley et al. [41]; conditions: versus 0.62 nM [3H]CP55,940; ref Wiley et al. [41]; cited from earlier work
[9] = biological target: CB2 receptor; parameters: method as in Wiley et al. [41]; conditions: versus 0.62 nM [3H]CP55,940; ref Wiley et al. [41]; cited from earlier work
[10] = biological target: T2, human CB2 receptor; test: cAMP accumulation assay, CHO cells stably expressing CB2; format: cell-based; conditions: compound at 10 µM; normalized to CP55,940 (1 µM)
Method: (§3) cAMP accumulation assays were performed also as previously described. Briefly, CHO cells stably expressing the respective human CB receptor subtype CB1 or CB2 were seeded overnight. […] After incubation for 15 min the buffer was removed, and the cells were lyzed. The amount of cAMP was determined in a radioligand binding assay by incubating 50 µL of the cell lysate with 3 nM [^3H]cAMP in the presence of protein preparations from bovine adrenal glands (cAMP binding protein). Bound and unbound radioligand were separated by rapid filtration through GF/B filters, and radioactivity was determined by liquid scintillation counting. To test for antagonistic activity, test compounds were added to Hank’s buffered salt solution (HBSS) containing 10% dimethyl sulfoxide (DMSO), 10 min after the application of Ro-20-1724, and the mixture was incubated for 20 min at 37 °C.
(§4) As a next step, we investigated the compounds in cAMP accumulation assays, to obtain information on their functionality (Fig. 3). CB receptors are Gi protein-coupled and thus reduce the levels of cAMP in the cells upon activation.

[11] = biological target: T1, human CB1 receptor; test: cAMP accumulation assay, CHO cells stably expressing CB1; format: cell-based; conditions: compound at 10 µM; normalized to CP55,940 (1 µM)
Method: as §3, §4

T2 sequence (P34972 whole entry): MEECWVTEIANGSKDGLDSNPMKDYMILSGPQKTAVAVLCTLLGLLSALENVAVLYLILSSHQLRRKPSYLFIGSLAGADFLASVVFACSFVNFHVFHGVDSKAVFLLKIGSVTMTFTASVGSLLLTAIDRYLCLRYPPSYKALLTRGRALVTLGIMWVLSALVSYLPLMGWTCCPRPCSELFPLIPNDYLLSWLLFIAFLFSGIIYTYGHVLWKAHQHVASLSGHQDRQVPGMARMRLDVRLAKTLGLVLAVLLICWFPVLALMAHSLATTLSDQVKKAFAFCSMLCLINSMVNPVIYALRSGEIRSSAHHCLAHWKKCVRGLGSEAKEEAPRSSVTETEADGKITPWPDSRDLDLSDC
T1 sequence (P21554 whole entry): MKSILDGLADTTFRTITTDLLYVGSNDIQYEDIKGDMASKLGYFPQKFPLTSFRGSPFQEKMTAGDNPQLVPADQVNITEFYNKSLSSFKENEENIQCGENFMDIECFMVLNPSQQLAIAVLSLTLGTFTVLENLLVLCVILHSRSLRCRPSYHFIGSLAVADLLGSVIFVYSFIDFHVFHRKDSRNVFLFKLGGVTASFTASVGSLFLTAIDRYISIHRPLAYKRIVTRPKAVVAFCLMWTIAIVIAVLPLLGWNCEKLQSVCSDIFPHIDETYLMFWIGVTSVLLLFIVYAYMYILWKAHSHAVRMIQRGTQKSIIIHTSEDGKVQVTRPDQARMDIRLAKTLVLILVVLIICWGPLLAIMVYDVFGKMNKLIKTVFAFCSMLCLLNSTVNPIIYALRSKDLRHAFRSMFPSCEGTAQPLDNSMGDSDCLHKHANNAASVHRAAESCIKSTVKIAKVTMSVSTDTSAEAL
T3 sequence (Q9Y2T6 whole entry): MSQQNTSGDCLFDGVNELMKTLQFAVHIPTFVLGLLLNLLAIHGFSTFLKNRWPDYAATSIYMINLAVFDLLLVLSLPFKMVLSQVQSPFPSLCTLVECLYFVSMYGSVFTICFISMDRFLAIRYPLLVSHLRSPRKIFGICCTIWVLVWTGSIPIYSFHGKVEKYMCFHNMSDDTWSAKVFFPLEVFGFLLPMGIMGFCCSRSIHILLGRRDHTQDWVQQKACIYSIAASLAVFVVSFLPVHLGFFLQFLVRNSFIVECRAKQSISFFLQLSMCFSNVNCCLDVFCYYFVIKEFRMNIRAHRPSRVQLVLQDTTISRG

Compound	Ki [1] [nM]	Ki [2] [nM]	Ki [3] [nM]	Ki [4] [nM]	EC50 [5] [nM]	IC50 [5] [nM]	Human GPR55 % activation [5] [%]	Ki [6] [nM]	EC50 [7] [nM]	IC50 [7] [nM]	Human GPR18 % activation [7]	Ki [8] [nM]	Ki [9] [nM]	Human GPR18 % inhibition [7] [%]	CB2 receptor activation in cAMP accumulation assay (in words) [10]	CB1 receptor activation in cAMP accumulation assay (in words) [11]
CCCCCn1cc(C(=O)c2cccc3ccccc23)c2ccccc21 [compound 3, JWH-018, reference compound]	1.51 ± 0.67	9	2.24 ± 1.2	2.9	–	–	–	–	–	–	–	–	–	–	–	–
CC(C)[C@H](NC(=O)c1nn(Cc2cccc(F)c2)c2ccccc12)C(N)=O [compound 18, AB-FUBINACA (3-F-benzyl-isomer)]	12.6 ± 0.7	–	52.2 ± 10.2	–	> 10000	> 10000	11	51.1	> 10000	> 10000	> 10 (10%)	–	–	–	–	–
CC(C)[C@H](NC(=O)c1nn(Cc2ccccc2F)c2ccccc12)C(N)=O [compound 19, AB-FUBINACA (2-F-benzyl-isomer)]	6.91 ± 3.42	–	25 ± 6.1	–	> 10000	> 10000	15	4.69	> 10000	> 10000	11%	–	–	–	–	–
CC(C)[C@H](NC(=O)c1nn(CC2CCCCC2)c2ccccc12)C(N)=O [compound 20]	1.72 ± 0.14	–	1.91 ± 0.2	–	> 10000	> 10000	8	–	> 10000	> 10000	13%	0.78	0.45	11	–	–
NC(=O)[C@H](Cc1ccccc1)NC(=O)c1nn(Cc2ccc(F)cc2)c2ccccc12 [compound 29, APP-FUBINACA]	56.3 ± 19.8	–	58.1 ± 17.3	–	> 10000	> 10000	26	47.6	> 10000	> 10000	4%	–	–	21	full agonists	partial activation
